Some test systems named below: SK-MEL-5; OVCAR-3; ACHN; RPMI-8226; CCRF-CEM; K562; UACC-62; MDA-MB-231; HCC 2998; U-251; HOP-92; NCI-H226; IGROV-1; A549; CAKI-1; MOLT-4; T47D; Malme-3M; SN12C; NCI-H23.
What all share (experiment): inhibition of tumour cell growth, NCI panel, 48 h

Each structure is given as a SMILES string.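 The compound was tested at five concentrations on cells cultured in 96-well plates, with a 48-hour exposure period. GI50 marks 50% less growth.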 Active and inactive are the calls of the source. No stated cut-off is given here; in the data, active = GI50 up to about 1.1 µM and inactive = higher.

As for `Cc1nc2sc(C(=O)c3ccc(Cl)cc3)c(N)c2c(-c2ccccc2Cl)c1C(=O)Nc1ccccc1`, the GI50 in the test on SK-MEL-5 is 17.4 µM (inactive); with OVCAR-3, 16.4 µM (inactive); in the test on ACHN, 21.2 µM (inactive); with RPMI-8226, 23.3 µM (inactive); in the test with CCRF-CEM, 3.77 µM (inactive); in the test with K562, 12.3 µM (inactive). Besides, the GI50 with UACC-62 is 13.6 µM (inactive); with MDA-MB-231, 14.2 µM (inactive); in the test with HCC 2998, 23.6 µM (inactive); in the test on U-251 it was 7.08 µM (inactive); with HOP-92, 3.08 µM (inactive); with NCI-H226, 17.7 µM (inactive). The GI50 with IGROV-1 was 19 µM (inactive); with A549 it was 9.06 µM (inactive); in the test on CAKI-1, 12 µM (inactive); in the test on MOLT-4 it was 14 µM (inactive); in the test with T47D, 2.93 µM (inactive); in the test on Malme-3M it was 13 µM (inactive). Besides, the GI50 is 9.42 µM (inactive) in the test on SN12C and 16.6 µM (inactive) in the test with NCI-H23.
Turning to `CC1=CC(=O)c2cccc(O)c2C1=O`, the GI50 is 1.79 µM (inactive) with SK-MEL-5; 1.53 µM (inactive) in the test with OVCAR-3; 1.78 µM (inactive) with ACHN; 3.53 µM (inactive) in the test with RPMI-8226; 1.91 µM (inactive) in the test with CCRF-CEM; 3.02 µM (inactive) with K562. Besides, the GI50 in the test with UACC-62 is 1.96 µM (inactive); in the test with MDA-MB-231, 1.76 µM (inactive); in the test on HCC 2998, 8.57 µM (inactive); in the test with U-251, 16.5 µM (inactive); in the test with HOP-92, 1.85 µM (inactive); in the test with NCI-H226, 7.28 µM (inactive). The GI50 in the test with IGROV-1 was 13.2 µM (inactive); with A549 it was 14.9 µM (inactive); in the test on CAKI-1 it was 1.88 µM (inactive); in the test with MOLT-4, 0.473 µM (active); with T47D it was 1.77 µM (inactive); with Malme-3M, 1.62 µM (inactive). In addition, the GI50 with SN12C was 2.32 µM (inactive); with NCI-H23, 2.96 µM (inactive).
Turning to `OC1c2ccccc2CCC1C(O)(C(F)(F)F)C(F)(F)F` (stereo not given), the GI50 in the test on SK-MEL-5 is > 100 µM (inactive); with OVCAR-3, 58.6 µM (inactive); with ACHN it was > 100 µM (inactive); in the test with RPMI-8226, > 100 µM (inactive); in the test on CCRF-CEM, > 100 µM (inactive); in the test with K562, > 100 µM (inactive). Also, the GI50 in the test with UACC-62 is > 100 µM (inactive); in the test with MDA-MB-231, 11 µM (inactive); in the test with HCC 2998, > 100 µM (inactive); in the test with U-251, > 100 µM (inactive); in the test with HOP-92, 35.1 µM (inactive); with NCI-H226 it was 38.4 µM (inactive). Moreover, the GI50 in the test with IGROV-1, with A549, in the test with CAKI-1, in the test with MOLT-4, in the test with T47D and with Malme-3M was > 100 µM (inactive) each time. Besides, the results for the GI50 with SN12C and in the test with NCI-H23 were > 100 µM (inactive) and 85.1 µM (inactive), respectively.
Consider `Cc1cc(C)nc(NC(=O)c2ccc(Br)s2)c1`, for which the GI50 in the test with SK-MEL-5 is 5.13 µM (inactive); in the test on OVCAR-3 it was > 100 µM (inactive); in the test on ACHN, > 100 µM (inactive); in the test with RPMI-8226 it was 3.3 µM (inactive); in the test on CCRF-CEM it was 3.37 µM (inactive); in the test on K562, > 100 µM (inactive). For the same compound, the GI50 in the test with UACC-62 was 95.3 µM (inactive); in the test with MDA-MB-231, 21.7 µM (inactive); with HCC 2998 it was > 100 µM (inactive); in the test on U-251, > 100 µM (inactive); in the test on HOP-92, > 100 µM (inactive); in the test with NCI-H226, > 100 µM (inactive). The GI50 is > 100 µM (inactive) in the test on IGROV-1; 48.4 µM (inactive) with A549; > 100 µM (inactive) in the test with CAKI-1; > 100 µM (inactive) in the test with MOLT-4; 31.9 µM (inactive) in the test with T47D; > 100 µM (inactive) in the test with Malme-3M. In addition, the GI50 with SN12C is > 100 µM (inactive); in the test on NCI-H23 it was 77.6 µM (inactive).
With `O=C(Nc1ccccn1)c1cc2c(cc1Cl)Sc1nccn1S2(=O)=O`, the GI50 in the test on SK-MEL-5 is 25.6 µM (inactive); in the test on OVCAR-3, 26.7 µM (inactive); with ACHN, 32.1 µM (inactive); with RPMI-8226 it was 29.7 µM (inactive); with CCRF-CEM, 22.5 µM (inactive); with K562, 32.3 µM (inactive). Moreover, the GI50 with UACC-62 is 42 µM (inactive); in the test with MDA-MB-231 it was 21.1 µM (inactive); in the test on HCC 2998, 16.1 µM (inactive); in the test on U-251, 44.4 µM (inactive); in the test with HOP-92, 51.9 µM (inactive); in the test with NCI-H226, 24.2 µM (inactive). For the same compound, the GI50 with IGROV-1 was 23.8 µM (inactive); in the test with A549, 34.8 µM (inactive); with CAKI-1 it was 36.5 µM (inactive); in the test on MOLT-4, 31.3 µM (inactive); with T47D, 20.7 µM (inactive); in the test on Malme-3M it was 63 µM (inactive). Moreover, the GI50 is 36.6 µM (inactive) in the test with SN12C and 27.4 µM (inactive) in the test with NCI-H23.
For `Nc1ccc(Oc2ccc(C34CC5CC6C3CC3CC4C(C5)C6(c4ccc(Oc5ccc(N)c(O)c5)cc4)C3)cc2)cc1O`, the GI50 was 2.96 µM (inactive) with SK-MEL-5; 1.47 µM (inactive) in the test with OVCAR-3; 2.44 µM (inactive) in the test with ACHN; 1.93 µM (inactive) in the test on RPMI-8226; 3.33 µM (inactive) with CCRF-CEM; 2.79 µM (inactive) with K562. The GI50 in the test with UACC-62 is 10.1 µM (inactive); in the test with MDA-MB-231, 3.75 µM (inactive); in the test on HCC 2998, 1.87 µM (inactive); in the test with U-251, 2.58 µM (inactive); in the test on HOP-92 it was 1.35 µM (inactive); with NCI-H226 it was 3.52 µM (inactive). The GI50 was 5.14 µM (inactive) in the test on IGROV-1; 1.9 µM (inactive) in the test with A549; 4.5 µM (inactive) with CAKI-1; 2.29 µM (inactive) in the test with MOLT-4; 0.652 µM (active) with T47D; 13.8 µM (inactive) with Malme-3M. Also, the GI50 in the test on SN12C is 1.72 µM (inactive); in the test with NCI-H23, 3.55 µM (inactive).
With `Cc1ccc(-c2n[nH]c(=O)n2N)cc1`, the GI50 with SK-MEL-5, with OVCAR-3, in the test on ACHN, in the test on RPMI-8226, with CCRF-CEM and in the test with K562 was > 100 µM (inactive) throughout. The GI50 in the test on UACC-62, with MDA-MB-231, with HCC 2998, in the test with U-251, in the test with HOP-92 and with NCI-H226 was > 100 µM (inactive) each time. Also, the GI50 in the test with IGROV-1, in the test on A549, in the test on CAKI-1, in the test with MOLT-4, in the test with T47D and in the test with Malme-3M was > 100 µM (inactive) throughout. The GI50 in the test on SN12C and in the test with NCI-H23 was > 100 µM (inactive) each time.

(Values after ChEMBL document CHEMBL1201862, “PubChem BioAssay data set” (2004).)
